Experimental data published in PubChem BioAssay (NCI).
Where “and” joins values, the source holds several entries; their conditions need not be identical. Equal values may be shown once.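 Each compound was tested at five concentrations against cells in 96-well plates for 48 hours. At the GI50, growth is halved. TGI is the concentration that stops growth completely.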

Legend:
Assay in all cases: NCI-60 cell line screen, 48 h
[1] = tested on: NCI-H23 lung
[2] = tested on: SN12C renal
[3] = tested on: SNB-75 CNS
[4] = tested on: OVCAR-5 ovarian
[5] = tested on: SW-620 colon
[6] = tested on: NCI-H522 lung
[7] = tested on: HT29 colon
[8] = tested on: HCT-116 colon
[9] = tested on: HCT-15 colon
[10] = tested on: HS 578T breast

Row | SMILES | TGI [1] | TGI [2] | TGI [3] [µM] | TGI [4] | TGI [5] | TGI [6] | TGI [7] | TGI [8] | TGI [9] | GI50 [1] [µM] | GI50 [2] [µM] | GI50 [3] [µM] | GI50 [4] [µM] | GI50 [5] [µM] | GI50 [10] [µM] | TGI [10] | GI50 [8] [µM] | GI50 [9] [µM] | GI50 [6] [µM] | GI50 [7] [µM]
1 | CC(=O)Nc1ccc(OCC(O)CO)cc1 (centres undefined) | > 100 µM | > 100 µM | > 100 | > 100 µM | 21.6 µM | > 100 µM | > 100 µM | > 100 µM | > 100 µM |  |  |  |  |  |  |  |  |  |  | 
2 | N#CC1([N+](=O)[O-])C=C1c1ccccc1 (centres undefined) | > 100 µM | > 100 µM |  | > 100 µM | 41.6 µM | 56.6 µM | > 100 µM | > 100 µM | > 100 µM |  |  |  |  |  |  |  |  |  |  | 
3 | O=S1(=O)C=C(c2ccccc2)C(c2ccccc2)=C1 | 3.93 µM | 3.92 µM | 2.6 | 3.14 µM | 2.39 µM |  |  | 2.28 µM | 3.15 µM | 1.86 | 1.79 | 1.33 | 1.69 | 1.07 | 1.18 | 3.5 µM | 1.09 | 1.53 |  | 
4 | CC(=O)OC1(C#N)CC2OC1C1NC21 (centres undefined) | > 100 µM | > 100 µM | > 100 | > 100 µM | > 100 µM | > 100 µM |  | > 100 µM | > 100 µM |  |  |  |  |  |  |  |  |  |  | 
5 | Nc1cc(N)c2nc(-c3ccccc3)c(Oc3ccc(Cl)c(Cl)c3)nc2c1 | 39.9 µM | 31.4 µM |  | 58.3 µM | 30.1 µM | 33.7 µM |  | 48.3 µM | > 100 µM | 15.6 | 14.5 |  | 25.4 | 9.69 | 10.6 | 33.7 µM | 15.7 | 20 | 8.34 | 
6 | CCCCCCC(=O)CC(=O)C(=O)Nc1ccccc1C | > 100 µM | > 100 µM | > 100 | > 100 µM | > 59.4 µM | > 100 µM | > 100 µM | > 100 µM | > 66.3 µM |  |  |  |  |  |  |  |  |  |  | 
7 | O=C1OC(=O)C2C1C1C(c3ccccc3)=C(c3ccccc3)C2(O)C2C(=O)OC(=O)C12 (centres undefined) | > 100 µM | > 100 µM | > 100 | > 100 µM | > 100 µM | > 100 µM | > 100 µM | > 100 µM | > 100 µM |  |  |  |  |  |  |  |  |  |  | 
8 | CCOc1cc[n+](C(=C=[N-])C#N)cc1 | > 100 µM | > 100 µM | > 100 | > 100 µM | > 100 µM | > 100 µM | > 100 µM | > 100 µM | > 100 µM |  |  |  |  |  |  |  |  |  |  | 
9 | CC(=O)CC(=O)ON(C)C(=O)Cc1ccccc1 | > 100 µM | > 100 µM | > 100 | > 100 µM | > 100 µM | > 100 µM | > 100 µM | > 100 µM | > 100 µM |  |  |  |  |  |  |  |  |  |  | 
10 | O=S1Cc2ccccc2CSS1 (centres undefined) | 28.1 µM | 29.4 µM | 43.4 | 37.4 µM | 27.2 µM | 19.4 µM | 32.1 µM | 28.3 µM | 28.1 µM |  |  |  |  |  |  |  |  |  |  | 
11 | CC1CCC2[C@@H](C)COC3O[C@]4(C)CCC1C32OO4 (some centres undefined) | > 100 µM | > 100 µM | > 100 | > 100 µM | > 100 µM | > 100 µM | > 100 µM | > 100 µM | > 100 µM |  |  |  |  |  |  |  |  |  |  | 
12 | CCC(=O)OCN1C(=O)C=CC1=O | 39.6 µM and 34.7 µM | 30.5 µM and 35.6 µM |  | 32.9 µM and 33.1 µM | 3.58 µM and 4.43 µM | 4.64 µM and 4.58 µM | 40.8 µM and 35.9 µM | 25.8 µM and 29.9 µM | 39.7 µM and 56.8 µM | 20.1 | 16.2 |  |  |  | 27.8 | 73.3 µM and 36.5 µM | 11.8 | 20.1 | 2.27 | 
13 | COc1ccc2c(c1)C(=O)c1c-2n(CCCNCCO)c(=O)c2cc([N+](=O)[O-])ccc12 | 0.0341 µM | 4.15 µM | 0.172 | 0.239 µM | 1.14 µM | 2.82 µM | 1.09 µM | 0.192 µM | 1.19 µM | < 0.01 | < 0.01 | < 0.01 | < 0.0128 | < 0.01 |  |  | < 0.01 | < 0.0211 | < 0.01 | < 0.01
14 | COc1c(OC2OC(CO)C(O)C(O)C2O)cc2c(c1OC)-c1ccc(OC)c(=O)cc1[C@@H](NC(C)=O)CC2 (some centres undefined) | > 100 µM | > 100 µM | 84.4 | > 100 µM | > 100 µM | 99.3 µM | > 100 µM | > 100 µM | > 100 µM |  |  |  |  |  |  |  |  |  |  | 
15 | Nc1ncnc2c1ncn2COC/C=C/I | > 100 µM | > 100 µM | > 100 | > 100 µM | > 100 µM | > 100 µM | > 100 µM | > 100 µM |  |  |  |  |  |  |  |  |  |  |  | 
16 | CCOc1ccccc1NC(=O)C(=O)c1c(O)c2ccc(O)cc2oc1=O | > 100 µM | > 100 µM | > 100 | > 100 µM | > 100 µM | > 100 µM | > 100 µM | > 100 µM | > 100 µM |  |  |  |  |  |  |  |  |  |  | 
17 | N#CC12CC3(CCC1CCC1(C2)OCCO1)OCCO3 (centres undefined) | > 100 µM | > 100 µM | > 100 | > 100 µM | > 100 µM | > 100 µM |  | > 100 µM | > 100 µM |  |  |  |  |  |  |  |  |  |  | 
18 | Cc1ccc(NC(=O)CC2C(=O)Nc3ccccc3S2(=O)=O)cc1C (centres undefined) | > 100 µM | > 100 µM | > 100 | > 100 µM | > 100 µM | > 100 µM | > 100 µM | > 100 µM | > 100 µM |  |  |  |  |  |  |  |  |  |  | 
19 | COC(=O)C(C(=O)C(=O)Nc1ccc(N)cc1[N+](=O)[O-])c1nc2ccc(Cl)cc2[nH]c1=O (centres undefined) | > 100 µM | > 100 µM | > 100 | > 100 µM | > 100 µM |  | > 100 µM | > 100 µM | > 100 µM |  |  |  |  |  |  |  |  |  |  | 
20 | Cc1c(C(=O)Nc2ccc(Cl)cc2)nc(N)nc1-c1cccc(Cl)c1 | > 100 µM | > 100 µM |  | > 100 µM | > 100 µM |  | > 100 µM | > 100 µM |  |  |  |  |  |  |  |  |  |  |  | 
21 | CC(=O)Nc1cc(CN2CCCCC2)c(O)c2ncccc12 | > 100 µM | 70.9 µM |  | > 100 µM | > 100 µM | > 100 µM | > 100 µM | 75.9 µM | > 100 µM |  |  |  |  |  |  | > 100 µM |  |  |  | 
22 | CC1=C(C(=O)NCc2ccccc2)C(c2ccccc2O)C(C(=O)NCc2ccccc2)=C(C)N1 | 34.1 µM | 32.3 µM | > 71.3 | 38 µM | 32.3 µM | 31.4 µM | 38.5 µM | 28.5 µM | 30.2 µM |  |  |  |  |  |  |  |  |  |  | 
